Data reported in patent US20040115176A1, “Fibrin-based tissue-engineered vasculature” (priority 2002, published 2004).

Key:
Type in all cases: cell-based, ovine
fibrin gel constructs [1] = experiment: Isolated tissue bath, relaxation of norepinephrine constriction; conditions: for relaxation of norepinephrine constriction: SNAP 10^−5 M, norepinephrine 3×10^−6
fibrin gel constructs [2] = experiment: Isolated tissue bath, constriction of construct rings
fibrin gel constructs [3] = experiment: Total weight of fibrin gel vessel constructs; conditions: 10 and 20 μg/ml aprotinin, two week time point
Experimental: Vessel constructs were left on 4.0 mm silastic tubing in which they were molded, and placed in a 50 ml conical with 30 ml of culture medium. The caps (fixed with 0.22 μm filter) were either attached to the pulsation device or left unattached. The constructs were incubated in a CO2 incubator at 37° C. and 5% CO2. Forty-eight hours after vessel molding, aprotinin (0-200 μg/ml) was added. Some of the vessel constructs were connected to a pneumatic pulsation system, representing a 5-10% radial distention at 60 beats/minute, and one of two pulsation time interval schemes (continuous or 1 hour per 12 hours). Aprotinin (Sigma), a competitive serine protease inhibitor which forms stable complexes with and blocks the active site of enzymes, was added to the fibrin mixture at 0, 10, 20, or 200 μg/ml of vessel medium. Aprotinin was reconstituted using culture medium, filter sterilized through a 0.22 μm syringe filter, and stored at 2.0 mg/ml/vial at 2-8° C. Tissue sections were weighed and some were placed in 10% buffered formalin for paraffin embedding, while others were placed in isolated tissue baths. The weights of the sections were added to obtain total construct weight. […]

fibrin gel constructs [4] = experiment: Hydroxyproline assay for collagen content of constructs
Experimental: Native tissue and vessel constructs were assayed for hydroxyproline using a modification of the methods of Reddy and Enwemeka (Clinical Biochemistry 29(3):225-9 (1996), which is hereby incorporated by reference in its entirety) to determine total collagen content. Tissues were first dabbed dry, weighed, transferred to eppendorf tubes, and then lyophilized. Samples were mixed with 2N sodium hydroxide in a total volume of 50 μl and hydrolyzed by autoclaving at 120° C. for 20 min. To the hydrolyzate was added 450 μl of chloramines-T solution containing 1.27 gm chloramines-T (Sigma) dissolved in 20 ml 50% n-propanol (Fisher) and brought to 100 ml with acetate citrate buffer containing 120 gm sodium acetate trihydrate (Fisher), 46 gm citric acid (Fisher), 12 ml acetic acid (Fisher), 34 gm sodium hydroxide bringing to 1 liter with distilled water and pH to 6.5. Mixing gently, the oxidation was allowed to proceed for 25 minutes at room temp. Samples were then gently mixed with 500 μl of Ehrlich's Reagent containing 15 gm p-dimethylaminobenzaldehyde (p-DMBA) (Sigma) dissolved in n-propanol/perchloric acid (2:1 v/v) (Fisher) and brought to 100 ml. The resulting 96-well plate of 200 μl samples was read using a spectrophotometer set to 550 nm to determine optical density, which was then correlated with collagen amount using a standard curve and a conversion factor of 8.0 μg collagen to 1 μg 4-hydroxyproline (Edwards and O'Brien, Clinica Chimica Acta 104(2):161-7 (1980), which is hereby incorporated by reference in its entirety).
Hydroxyproline is an imino acid found specifically in type I collagen at 12.5% of the total by weight. This spectrophotometric assay was used to quantitate directly the collagen content of tissue homogenates. The values are represented as μg of collagen/mg of tissue, dry weight.

fibrin gel constructs [5] = experiment: PCNA staining, percentage of proliferating cells
Experimental: Proliferating cell nuclear antigen stain (“PCNA”) was used to identify and quantitate the percentage of proliferating cells within the tissue-engineered vessel constructs of the present invention. PCNA is a 36 kD molecule highly conserved between species. PCNA functions as a co-factor for DNA polymerase delta in S phase and also during DNA synthesis associated with repair. The PCNA molecule has a half life greater than 20 hours and, therefore, may detect non-proliferating cells in Go phase. Tissue section were fixed in 10% buffered formalin, and paraffin embedded. Tissue sections were cut at 4 μm and placed on positive slides. Sections were then deparaffinised and rehydrated to distilled water. Endogenous peroxidase was blocked by placing sections in […] for 10 minutes and then washed in tap water. Antigen retrieval methods were then applied. Sections were either boiled in 0.01M citrate buffer, or placed in a microwave for 30 seconds on low power. Sections were then washed 1×5 minutes in […] (TBS). Sections were placed in diluted normal serum for 10 minutes, incubated with primary antibody, and washed in TBS 2×5 minutes. Sections were also incubated with biotinylated secondary antibody, and washed in TBS 2×5 minutes. Slides were then incubated in ABC reagent (streptavidin/peroxidase complex), and washed in TBS 2×5 minutes. Slides were incubated in DAB (peroxidase substrate), and washed thoroughly in running tap water. The slides were then counterstained with hematoxylin, dehydrated, and mounted. Proliferating cell nuclear antigen (PCNA) was used to identify cells that were in a proliferating state using histological staining methods. FIGS. 11A-D represent constructs that were stained at 1 week (FIGS. 11A and 11B) and 2 weeks (FIGS. 11C and 11D). The constructs in FIGS. 11A and 11C were under non-pulsed conditions. The constructs in FIGS. 11B and 11D were under pulsed conditions. The PCNA antibody was visualized with diaminobenzidine (DAB) and counter stained with hematoxylin. There was little staining visualized at the one week time point as compared to the two week time point for both the non-pulsed and pulsed constructs. The non-pulsed tissue was slightly greater at both one and two weeks. The PCNA staining was quantitated by counting the total number of positive cells per high powered field and dividing by the total number of cells in the same field to obtain percent of proliferation.

fibrin gel constructs [6] = experiment: Cell density within vessel constructs (H&E histology)
Experimental: Histological sections of the vessel constructs that were previously prepared with H&E Stain were used to count total number of cells per area. Random high powered fields were measured using Photo Spot software to calculate the actual surface area. The hematoxylin nuclear stain was used to identify the number of cells per high powered field. This was then used to calculate the number cells per surface area (cells/mm^2). Cell density within vessel constructs of the present invention was calculated using histology sections stained with hematoxylin and eosin. Total number of cells were counted per high powered field, divided by the area measured using Photospot Advanced software, and reported as number of cells/mm^2. […] However, at 10 μg/ml aprotinin and thereafter, both groups were decreased and equal. The altered pulsation group ( 1/12 pulsation) (2 wks, 608±123 cells/mm^2, n=5) was equal to both non-pulsed and pulsed at 20 μg/ml aprotinin (FIG. 17). Considering the change in cell density over time (1, 2, 3, 4 and 8 weeks), they were similar at weeks 1 and 2. […] At weeks 4 and 8, there was a significant difference between the two groups (Non-pulsed: 1 wk, 613±140, n=2; 2 wk, 591±52, n=6; 3 wk, 817±43, n=2; 4 wk, 865±17, n=4; 8 wk, 751±101, n=6; Pulsed: 1 wk, 566±33, n=2; 2 wk, 448±71, n=5; 3 wk, 480±213, n=3; 4 wk, 175±25, n=4; 8 wk, 168±54, n=3) (FIG. 18).

[7] = altered pulsation (1 hour per 12 hours), 20 μg/ml aprotinin, 2 wks
[8] = non-pulsed, 10 μg/ml aprotinin, 14 days
[9] = non-pulsed, 20 μg/ml aprotinin, 4 wk
[10] = non-pulsed, 20 μg/ml aprotinin, 8 wk
[11] = non-pulsed, 20 μg/ml aprotinin, 14 days (2 wk)
[12] = non-pulsed, 200 μg/ml aprotinin, 14 days
[13] = pulsed, 10 μg/ml aprotinin, 14 days
[14] = pulsed, 20 μg/ml aprotinin, 4 wk
[15] = pulsed, 20 μg/ml aprotinin, 8 wk
[16] = pulsed, 20 μg/ml aprotinin, 14 days (2 wk)
[17] = pulsed, 200 μg/ml aprotinin, 14 days
[18] = non-pulsed, 20 μg/ml aprotinin, 1 wk
[19] = non-pulsed, 20 μg/ml aprotinin, 3 wk
[20] = pulsed, 20 μg/ml aprotinin, 1 wk
[21] = pulsed, 20 μg/ml aprotinin, 3 wk

Compound: CC(=O)N[C@@H](C(=O)O)C(C)(C)SN=O (racemic) [SNAP]
- relaxation of norepinephrine constriction (fibrin gel constructs [1]; non-pulsed constructs): 42 % of constriction
- relaxation of norepinephrine constriction (fibrin gel constructs [1]; pulsed constructs): fully
- relaxation of norepinephrine constriction compared with 0, 10 and 20 μg/ml aprotinin (fibrin gel constructs [1]; SNAP 10^−7 and 10^−6 M, norepinephrine 10^−6 M, non-pulsed constructs, 200 μg/ml aprotinin): much greater

Compound: [Cl-].[K+] [KCl]
- constriction (fibrin gel constructs [2]; 118 mM KCl, non-pulsed constructs grown with 10 μg/ml aprotinin): 18446±4027 dynes/cm^2
- constriction (fibrin gel constructs [2]; 118 mM KCl, non-pulsed constructs grown with 20 μg/ml aprotinin): 12244±2083 dynes/cm^2
- constriction (fibrin gel constructs [2]; 118 mM KCl, non-pulsed constructs grown with 200 μg/ml aprotinin): 6056±2003 dynes/cm^2
- constriction (fibrin gel constructs [2]; 118 mM KCl, pulsed constructs grown with 10 μg/ml aprotinin): 19274±8302 dynes/cm^2
- constriction (fibrin gel constructs [2]; 118 mM KCl, pulsed constructs grown with 20 μg/ml aprotinin): 8896±1347 dynes/cm^2
- constriction (fibrin gel constructs [2]; 118 mM KCl, pulsed constructs grown with 200 μg/ml aprotinin): 2232±475 dynes/cm^2

Compound: CCCCC[C@H](O)/C=C/[C@@H]1[C@@H](C/C=C\CCCC(=O)O)[C@H]2CO[C@@H]1C2 [U46619]
- constriction (fibrin gel constructs [2]; U46619 3×10^−7, non-pulsed constructs, 0 μg/ml aprotinin): 1160±775 dynes/cm^2
- constriction (fibrin gel constructs [2]; U46619 3×10^−7, non-pulsed constructs, 200 μg/ml aprotinin): 2140±416 dynes/cm^2
- constriction (fibrin gel constructs [2]; U46619 3×10^−7, pulsed constructs, 10 μg/ml aprotinin): 2670±944 dynes/cm^2
- constriction (fibrin gel constructs [2]; U46619 3×10^−7, pulsed constructs, 200 μg/ml aprotinin): 973±240 dynes/cm^2

Compound: CC(C)NCC(O)c1ccc(O)c(O)c1 (stereo not shown) [isoproterenol]
- relaxation (fibrin gel constructs [1]; isoproterenol compared with SNAP): much less than that of SNAP

Compound: NC[C@H](O)c1ccc(O)c(O)c1 [norepinephrine]
- constriction (fibrin gel constructs [2]; norepinephrine 3×10^−6 M, non-pulsed constructs, 0 μg/ml aprotinin): 4743±1849 dynes/cm^2
- constriction (fibrin gel constructs [2]; norepinephrine 3×10^−6 M, non-pulsed constructs, 200 μg/ml aprotinin): 965±16 dynes/cm^2
- constriction (fibrin gel constructs [2]; norepinephrine 3×10^−6 M, pulsed constructs, 10 μg/ml aprotinin): 4316±1738 dynes/cm^2
- constriction (fibrin gel constructs [2]; norepinephrine 3×10^−6 M, pulsed constructs, 200 μg/ml aprotinin): 101±102 dynes/cm^2

Compound: aprotinin
- increase in total tissue weight with later (48 hrs) addition of aprotinin (fibrin gel constructs [3]; non-pulsed): 50%
- increase in total tissue weight with later (48 hrs) addition of aprotinin (fibrin gel constructs [3]; pulsed): 130%
- collagen content (fibrin gel constructs [4]; [7]): 266.6 ± 20.9 µg/mg
- collagen content (fibrin gel constructs [4]; [8]): 175.2 ± 42.3 µg/mg
- collagen content (fibrin gel constructs [4]; [9]): 239.9 ± 73.2 µg/mg
- collagen content (fibrin gel constructs [4]; [10]): 283.5 ± 80.3 µg/mg
- collagen content (fibrin gel constructs [4]; [11]): 225.0 ± 30.2 µg/mg
- collagen content (fibrin gel constructs [4]; [12]): 270.1 ± 46.2 µg/mg
- collagen content (fibrin gel constructs [4]; [13]): 31.5 ± 22.5 µg/mg
- collagen content (fibrin gel constructs [4]; [14]): 124.5 ± 25.1 µg/mg
- collagen content (fibrin gel constructs [4]; [15]): 91.8 ± 24.3 µg/mg
- collagen content (fibrin gel constructs [4]; [16]): 105.9 ± 16.7 µg/mg
- collagen content (fibrin gel constructs [4]; [17]): 217.3 ± 21.0 µg/mg
- percent of proliferation (PCNA positive cells) (fibrin gel constructs [5]; [7]): 26.3±5.0%
- percent of proliferation (PCNA positive cells) (fibrin gel constructs [5]; [8]): 73.3±8.8%
- percent of proliferation (PCNA positive cells) (fibrin gel constructs [5]; [18]): 20.44±44.0%
- percent of proliferation (PCNA positive cells) (fibrin gel constructs [5]; [19]): 55.5±4.7%
- percent of proliferation (PCNA positive cells) (fibrin gel constructs [5]; [9]): 20.1±7.6%
- percent of proliferation (PCNA positive cells) (fibrin gel constructs [5]; [10]): 22.8±3. %
- percent of proliferation (PCNA positive cells) (fibrin gel constructs [5]; [11]): 73.6±6.3%
- percent of proliferation (PCNA positive cells) (fibrin gel constructs [5]; [12]): 2.9±0.9%
- percent of proliferation (PCNA positive cells) (fibrin gel constructs [5]; [13]): 12.3±3.6%
- percent of proliferation (PCNA positive cells) (fibrin gel constructs [5]; [20]): 41.7±31.1%
- percent of proliferation (PCNA positive cells) (fibrin gel constructs [5]; [21]): 37.5±3.6%
- percent of proliferation (PCNA positive cells) (fibrin gel constructs [5]; [14]): 28.0±6.9%
- percent of proliferation (PCNA positive cells) (fibrin gel constructs [5]; [15]): 14.7±7.5%
- percent of proliferation (PCNA positive cells) (fibrin gel constructs [5]; [16]): 89.6±2.6%
- percent of proliferation (PCNA positive cells) (fibrin gel constructs [5]; [17]): 7.7±1.9%
- cell density (fibrin gel constructs [6]; [7]): 608±123 cells/mm^2
- cell density (fibrin gel constructs [6]; [8]): 731±108 cells/mm^2
- cell density (fibrin gel constructs [6]; [18]): 613±140 cells/mm^2
- cell density (fibrin gel constructs [6]; [19]): 817±43 cells/mm^2
- cell density (fibrin gel constructs [6]; [9]): 865±17 cells/mm^2
- cell density (fibrin gel constructs [6]; [10]): 751±101 cells/mm^2
- cell density (fibrin gel constructs [6]; [11]): 591±52 cells/mm^2
- cell density (fibrin gel constructs [6]; [12]): 635±98 cells/mm^2
- cell density (fibrin gel constructs [6]; [13]): 611±180 cells/mm^2
- cell density (fibrin gel constructs [6]; [20]): 566±33 cells/mm^2
- cell density (fibrin gel constructs [6]; [21]): 480±213 cells/mm^2
- cell density (fibrin gel constructs [6]; [14]): 175±25 cells/mm^2
- cell density (fibrin gel constructs [6]; [15]): 168±54 cells/mm^2
- cell density (fibrin gel constructs [6]; [16]): 448±71 cells/mm^2
- cell density (fibrin gel constructs [6]; [17]): 390±59 cells/mm^2
